Data taken from patent US5506261A, “Substituted aryl- and heteroarylalkenyl-N-hydroxyurea inhibitors of leukotriene biosynthesis” (Abbott Laboratories, priority 1994, dated 1996).

Tested on: calcium ionophore-induced LTB4 biosynthesis
Test: Inhibition of calcium ionophore (A23187)-induced LTB4 biosynthesis in human whole blood
Format: cell-based
Settings: human heparinized whole blood; 15 min preincubation at 37° C.; A23187 8.3 μM, 30 minutes; LTB4 by radioimmunoassay; read-out: IC50, inhibition of leukotriene biosynthesis in human whole blood
Protocol: Inhibition of leukotriene biosynthesis was evaluated in an assay, involving calcium ionophore-induced LTB4 biosynthesis expressed human whole blood. Human heparinized whole blood was preincubated with test compounds or vehicle for 15 rain at 37° C. followed by calcium ionophore A23187 challenge (final concentration of 8.3 μM) and the reaction terminated after 30 minutes by adding two volumes of methanol containing prostaglandin B2 as an internal recovery standard. The methanol extract was analyzed for LTB4 using a commercially available radioimmunoassay.

Row | IC50 [nM] | Compound
1 | 40 | C[C@H](/C=C\c1ccc(Cc2ccc(F)cc2)s1)N(O)C(N)=O [Example 1, Z-(R)-N-[3-(5-(4-Fluorophenylmethyl)-thien-2-yl)-1-methyl-2-propenyl]-N-hydroxyurea]
2 | 180 | C[C@H](/C=C/c1ccc(Cc2ccc(F)cc2)s1)N(O)C(N)=O [Example 2, E-(R)-N-[3-(5-(4-Fluorophenylmethyl)-thien-2-yl)-1-methyl-2-propenyl]-N-hydroxyurea]
